In the NIST ThermoML archive (doi:10.1016/j.jct.2015.08.014):
Numbers after ± are expanded uncertainties.

Assay: xn = mol fraction of the nth substance listed
Conditions: 293.15 K, 100 kPa, Liquid, Alternating current cell with electrodes

CCCC[N+]1(C)CCCC1.N#CN=C=[N-] [1-butyl-1-methylpyrrolidinium dicyanamide] + O=C1CCCO1
electrical conductivity (Frequency=0.0015 MHz, x1 = 0.3029): 2.29 ± 0.023 S/m | electrical conductivity (Frequency=0.0015 MHz, x1 = 0.3845): 2.112 ± 0.021 S/m | electrical conductivity (Frequency=0.0015 MHz, x1 = 0.4985): 1.84 ± 0.019 S/m | electrical conductivity (Frequency=0.0015 MHz, x1 = 0.6954): 1.46 ± 0.015 S/m | electrical conductivity (Frequency=0.0015 MHz, x1 = 0.9013): 1.19 ± 0.012 S/m | electrical conductivity (Frequency=0.0015 MHz, x1 = 1): 1.123 ± 0.011 S/m | electrical conductivity (Frequency=0.002 MHz, x1 = 0.0463): 1.37 ± 0.024 S/m | electrical conductivity (Frequency=0.002 MHz, x1 = 0.0987): 2.04 ± 0.025 S/m | electrical conductivity (Frequency=0.002 MHz, x1 = 0.1449): 2.31 ± 0.024 S/m | electrical conductivity (Frequency=0.002 MHz, x1 = 0.1859): 2.443 ± 0.024 S/m | electrical conductivity (Frequency=0.002 MHz, x1 = 0.2493): 2.37 ± 0.024 S/m | electrical conductivity (Frequency=0.002 MHz, x1 = 0.3029): 2.29 ± 0.023 S/m | electrical conductivity (Frequency=0.002 MHz, x1 = 0.3845): 2.113 ± 0.021 S/m | electrical conductivity (Frequency=0.002 MHz, x1 = 0.4985): 1.84 ± 0.019 S/m | electrical conductivity (Frequency=0.002 MHz, x1 = 0.6954): 1.46 ± 0.015 S/m | electrical conductivity (Frequency=0.002 MHz, x1 = 0.9013): 1.19 ± 0.012 S/m | electrical conductivity (Frequency=0.002 MHz, x1 = 1): 1.123 ± 0.011 S/m | electrical conductivity (Frequency=0.0025 MHz, x1 = 0.0463): 1.37 ± 0.024 S/m | electrical conductivity (Frequency=0.0025 MHz, x1 = 0.0987): 2.04 ± 0.025 S/m | electrical conductivity (Frequency=0.0025 MHz, x1 = 0.1449): 2.31 ± 0.024 S/m | electrical conductivity (Frequency=0.0025 MHz, x1 = 0.1859): 2.445 ± 0.024 S/m | electrical conductivity (Frequency=0.0025 MHz, x1 = 0.2493): 2.37 ± 0.024 S/m | electrical conductivity (Frequency=0.0025 MHz, x1 = 0.3029): 2.29 ± 0.023 S/m | electrical conductivity (Frequency=0.0025 MHz, x1 = 0.3845): 2.114 ± 0.021 S/m | electrical conductivity (Frequency=0.0025 MHz, x1 = 0.4985): 1.84 ± 0.019 S/m | electrical conductivity (Frequency=0.0025 MHz, x1 = 0.6954): 1.46 ± 0.015 S/m | electrical conductivity (Frequency=0.0025 MHz, x1 = 0.9013): 1.19 ± 0.012 S/m | electrical conductivity (Frequency=0.0025 MHz, x1 = 1): 1.123 ± 0.011 S/m | electrical conductivity (Frequency=0.003 MHz, x1 = 0.0463): 1.37 ± 0.024 S/m | electrical conductivity (Frequency=0.003 MHz, x1 = 0.0987): 2.05 ± 0.025 S/m | electrical conductivity (Frequency=0.003 MHz, x1 = 0.1449): 2.31 ± 0.024 S/m | electrical conductivity (Frequency=0.003 MHz, x1 = 0.1859): 2.45 ± 0.025 S/m | electrical conductivity (Frequency=0.003 MHz, x1 = 0.2493): 2.37 ± 0.024 S/m | electrical conductivity (Frequency=0.003 MHz, x1 = 0.3029): 2.29 ± 0.023 S/m | electrical conductivity (Frequency=0.003 MHz, x1 = 0.3845): 2.114 ± 0.021 S/m | electrical conductivity (Frequency=0.003 MHz, x1 = 0.4985): 1.84 ± 0.019 S/m | electrical conductivity (Frequency=0.003 MHz, x1 = 0.6954): 1.46 ± 0.015 S/m | electrical conductivity (Frequency=0.003 MHz, x1 = 0.9013): 1.19 ± 0.012 S/m | electrical conductivity (Frequency=0.003 MHz, x1 = 1): 1.123 ± 0.011 S/m | electrical conductivity (Frequency=0.00347222 MHz, x1 = 0.0463): 1.37 ± 0.024 S/m | electrical conductivity (Frequency=0.00347222 MHz, x1 = 0.0987): 2.05 ± 0.025 S/m | electrical conductivity (Frequency=0.00347222 MHz, x1 = 0.1449): 2.31 ± 0.024 S/m | electrical conductivity (Frequency=0.00347222 MHz, x1 = 0.1859): 2.45 ± 0.025 S/m | electrical conductivity (Frequency=0.00347222 MHz, x1 = 0.2493): 2.37 ± 0.024 S/m | electrical conductivity (Frequency=0.00347222 MHz, x1 = 0.3029): 2.29 ± 0.023 S/m | electrical conductivity (Frequency=0.00347222 MHz, x1 = 0.3845): 2.115 ± 0.021 S/m | electrical conductivity (Frequency=0.00347222 MHz, x1 = 0.4985): 1.84 ± 0.019 S/m | electrical conductivity (Frequency=0.00347222 MHz, x1 = 0.6954): 1.46 ± 0.015 S/m | electrical conductivity (Frequency=0.00347222 MHz, x1 = 0.9013): 1.19 ± 0.012 S/m | electrical conductivity (Frequency=0.00347222 MHz, x1 = 1): 1.123 ± 0.011 S/m | electrical conductivity (Frequency=0.004 MHz, x1 = 0.0463): 1.37 ± 0.024 S/m | electrical conductivity (Frequency=0.004 MHz, x1 = 0.0987): 2.05 ± 0.025 S/m | electrical conductivity (Frequency=0.004 MHz, x1 = 0.1449): 2.31 ± 0.024 S/m | electrical conductivity (Frequency=0.004 MHz, x1 = 0.1859): 2.45 ± 0.025 S/m | electrical conductivity (Frequency=0.004 MHz, x1 = 0.2493): 2.37 ± 0.024 S/m | electrical conductivity (Frequency=0.004 MHz, x1 = 0.3029): 2.29 ± 0.023 S/m | electrical conductivity (Frequency=0.004 MHz, x1 = 0.3845): 2.115 ± 0.021 S/m | electrical conductivity (Frequency=0.004 MHz, x1 = 0.4985): 1.84 ± 0.019 S/m | electrical conductivity (Frequency=0.004 MHz, x1 = 0.6954): 1.46 ± 0.015 S/m | electrical conductivity (Frequency=0.004 MHz, x1 = 0.9013): 1.19 ± 0.012 S/m | electrical conductivity (Frequency=0.004 MHz, x1 = 1): 1.123 ± 0.011 S/m | electrical conductivity (Frequency=0.00446429 MHz, x1 = 0.0463): 1.37 ± 0.024 S/m | electrical conductivity (Frequency=0.00446429 MHz, x1 = 0.0987): 2.05 ± 0.025 S/m | electrical conductivity (Frequency=0.00446429 MHz, x1 = 0.1449): 2.31 ± 0.024 S/m | electrical conductivity (Frequency=0.00446429 MHz, x1 = 0.1859): 2.45 ± 0.025 S/m | electrical conductivity (Frequency=0.00446429 MHz, x1 = 0.2493): 2.37 ± 0.024 S/m | electrical conductivity (Frequency=0.00446429 MHz, x1 = 0.3029): 2.29 ± 0.023 S/m | electrical conductivity (Frequency=0.00446429 MHz, x1 = 0.3845): 2.115 ± 0.021 S/m | electrical conductivity (Frequency=0.00446429 MHz, x1 = 0.4985): 1.84 ± 0.019 S/m | electrical conductivity (Frequency=0.00446429 MHz, x1 = 0.6954): 1.46 ± 0.015 S/m | electrical conductivity (Frequency=0.00446429 MHz, x1 = 0.9013): 1.19 ± 0.012 S/m | electrical conductivity (Frequency=0.00446429 MHz, x1 = 1): 1.123 ± 0.011 S/m | electrical conductivity (Frequency=0.005 MHz, x1 = 0.0463): 1.37 ± 0.024 S/m | electrical conductivity (Frequency=0.005 MHz, x1 = 0.0987): 2.05 ± 0.025 S/m | electrical conductivity (Frequency=0.005 MHz, x1 = 0.1449): 2.31 ± 0.024 S/m | electrical conductivity (Frequency=0.005 MHz, x1 = 0.1859): 2.45 ± 0.025 S/m | electrical conductivity (Frequency=0.005 MHz, x1 = 0.2493): 2.37 ± 0.024 S/m | electrical conductivity (Frequency=0.005 MHz, x1 = 0.3029): 2.29 ± 0.023 S/m | electrical conductivity (Frequency=0.005 MHz, x1 = 0.3845): 2.115 ± 0.021 S/m | electrical conductivity (Frequency=0.005 MHz, x1 = 0.4985): 1.84 ± 0.019 S/m | electrical conductivity (Frequency=0.005 MHz, x1 = 0.6954): 1.46 ± 0.015 S/m | electrical conductivity (Frequency=0.005 MHz, x1 = 0.9013): 1.19 ± 0.012 S/m | electrical conductivity (Frequency=0.005 MHz, x1 = 1): 1.123 ± 0.011 S/m | electrical conductivity (Frequency=0.005454 MHz, x1 = 0.0463): 1.37 ± 0.024 S/m | electrical conductivity (Frequency=0.005454 MHz, x1 = 0.0987): 2.05 ± 0.025 S/m | electrical conductivity (Frequency=0.005454 MHz, x1 = 0.1449): 2.31 ± 0.024 S/m | electrical conductivity (Frequency=0.005454 MHz, x1 = 0.1859): 2.45 ± 0.025 S/m | electrical conductivity (Frequency=0.005454 MHz, x1 = 0.2493): 2.37 ± 0.024 S/m | electrical conductivity (Frequency=0.005454 MHz, x1 = 0.3029): 2.29 ± 0.023 S/m | electrical conductivity (Frequency=0.005454 MHz, x1 = 0.3845): 2.116 ± 0.021 S/m | electrical conductivity (Frequency=0.005454 MHz, x1 = 0.4985): 1.84 ± 0.019 S/m | electrical conductivity (Frequency=0.005454 MHz, x1 = 0.6954): 1.46 ± 0.015 S/m | electrical conductivity (Frequency=0.005454 MHz, x1 = 0.9013): 1.19 ± 0.012 S/m | electrical conductivity (Frequency=0.005454 MHz, x1 = 1): 1.123 ± 0.011 S/m | electrical conductivity (Frequency=0.006 MHz, x1 = 0.0463): 1.37 ± 0.024 S/m | electrical conductivity (Frequency=0.006 MHz, x1 = 0.0987): 2.05 ± 0.025 S/m | electrical conductivity (Frequency=0.006 MHz, x1 = 0.1449): 2.31 ± 0.024 S/m | electrical conductivity (Frequency=0.006 MHz, x1 = 0.1859): 2.45 ± 0.025 S/m | electrical conductivity (Frequency=0.006 MHz, x1 = 0.2493): 2.37 ± 0.024 S/m | electrical conductivity (Frequency=0.006 MHz, x1 = 0.3029): 2.29 ± 0.023 S/m | electrical conductivity (Frequency=0.006 MHz, x1 = 0.3845): 2.116 ± 0.021 S/m | electrical conductivity (Frequency=0.006 MHz, x1 = 0.4985): 1.84 ± 0.019 S/m | electrical conductivity (Frequency=0.006 MHz, x1 = 0.6954): 1.46 ± 0.015 S/m | electrical conductivity (Frequency=0.006 MHz, x1 = 0.9013): 1.19 ± 0.012 S/m | electrical conductivity (Frequency=0.006 MHz, x1 = 1): 1.123 ± 0.011 S/m | electrical conductivity (Frequency=0.00652174 MHz, x1 = 0.0463): 1.37 ± 0.024 S/m | electrical conductivity (Frequency=0.00652174 MHz, x1 = 0.0987): 2.05 ± 0.025 S/m
